Measurements taken from paper PMC9969023 (European Journal of Nuclear Medicine and Molecular Imaging, 2023).

^18F-FDG
SUVmax of paratracheal enlarged lymph nodes (patient 2, PET/MR): 21.50
SUVmax of thickened esophagus (patient 2, PET/MR, 3.7 MBq/kg, 50 to 70 min P.I.): 28.24
SUVmax of lung nodule (patient 2, PET/MR, nodule in left lung lower lobe): 1.60
uptake in peritoneal nodules (patient 3, peritoneal metastases, result in words): mild increased uptake
